Here are results for twelve compounds from patent US10513521B2, “Compositions and methods for inhibiting BMP” (The Brigham and Women's Hospital, Inc., priority 2014, dated 2019).

The target of test [1] is T1, ALK4 (Homo sapiens, UniProt P36896).
T1 sequence (P36896 24-505): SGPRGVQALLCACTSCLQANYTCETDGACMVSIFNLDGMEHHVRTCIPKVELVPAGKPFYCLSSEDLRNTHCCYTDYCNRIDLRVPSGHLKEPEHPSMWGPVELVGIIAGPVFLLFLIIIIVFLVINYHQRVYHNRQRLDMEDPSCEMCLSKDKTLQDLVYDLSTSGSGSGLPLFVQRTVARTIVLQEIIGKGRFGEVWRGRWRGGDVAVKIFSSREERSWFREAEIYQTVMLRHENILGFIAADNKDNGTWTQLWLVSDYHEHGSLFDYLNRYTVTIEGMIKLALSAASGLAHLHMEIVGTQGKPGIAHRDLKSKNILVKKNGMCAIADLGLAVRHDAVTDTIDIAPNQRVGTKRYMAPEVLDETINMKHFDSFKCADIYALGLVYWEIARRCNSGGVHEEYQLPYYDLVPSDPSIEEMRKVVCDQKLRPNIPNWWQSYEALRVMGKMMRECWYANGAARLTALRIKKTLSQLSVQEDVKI
In words: TR-FRET enzymatic ALK kinase assay, ALK4. (Time-resolved FRET reads energy transfer from a long-lived donor to a nearby acceptor.)
Description: (§1) Briefly, the ALKs enzymatic assay was initiated by dispense 2.5 μl enzyme in 1× kinase reaction buffer. The assay plate was then added with compounds followed by incubation at room temperature for 10 minutes. Then 2.5 μl/well substrate was added.

In test [2] the target is ALK6 (Homo sapiens, UniProt O00238). Put plainly: TR-FRET enzymatic ALK kinase assay, ALK6.
Description: as §1
In test [3] the target is ALK1 (Homo sapiens, UniProt P37023). Put plainly: TR-FRET enzymatic ALK kinase assay, ALK1.
Description: as §1
Test [4] deals with T2, ALK5 (Homo sapiens, UniProt P36897).
T2 sequence (P36897 34-503): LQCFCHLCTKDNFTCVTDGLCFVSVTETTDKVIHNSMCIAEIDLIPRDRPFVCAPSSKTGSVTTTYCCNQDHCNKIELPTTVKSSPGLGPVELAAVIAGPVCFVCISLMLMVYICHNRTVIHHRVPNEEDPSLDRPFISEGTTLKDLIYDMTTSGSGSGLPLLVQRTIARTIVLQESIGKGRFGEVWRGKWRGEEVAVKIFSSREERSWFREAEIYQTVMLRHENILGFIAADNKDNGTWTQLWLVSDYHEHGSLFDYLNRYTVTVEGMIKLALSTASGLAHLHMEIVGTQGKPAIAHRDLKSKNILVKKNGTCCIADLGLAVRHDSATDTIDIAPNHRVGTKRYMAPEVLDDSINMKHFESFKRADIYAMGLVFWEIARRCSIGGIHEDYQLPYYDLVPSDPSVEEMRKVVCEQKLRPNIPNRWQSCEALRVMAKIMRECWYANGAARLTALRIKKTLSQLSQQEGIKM
In words: TR-FRET enzymatic ALK kinase assay, ALK5.
Description: Six ALK kinase enzyme assays were developed for determination of compound activities on ALK1, ALK2, ALK3, ALK4, ALK5 and ALK6.
as §1

Test [5] has as its target ALK3 (Homo sapiens, UniProt P36894). In words: TR-FRET enzymatic ALK kinase assay, ALK3.
Description: as §1
In test [6] the target is T3, ALK1 (Bos taurus, UniProt A4FUX2).
T3 construct: The BAOEC cell line was employed for the measurement of ALK1 activity using BMP9 as the agonist; host or cells: BAOEC (bovine aortic endothelial cells)
T3 sequence (A4FUX2 23-503): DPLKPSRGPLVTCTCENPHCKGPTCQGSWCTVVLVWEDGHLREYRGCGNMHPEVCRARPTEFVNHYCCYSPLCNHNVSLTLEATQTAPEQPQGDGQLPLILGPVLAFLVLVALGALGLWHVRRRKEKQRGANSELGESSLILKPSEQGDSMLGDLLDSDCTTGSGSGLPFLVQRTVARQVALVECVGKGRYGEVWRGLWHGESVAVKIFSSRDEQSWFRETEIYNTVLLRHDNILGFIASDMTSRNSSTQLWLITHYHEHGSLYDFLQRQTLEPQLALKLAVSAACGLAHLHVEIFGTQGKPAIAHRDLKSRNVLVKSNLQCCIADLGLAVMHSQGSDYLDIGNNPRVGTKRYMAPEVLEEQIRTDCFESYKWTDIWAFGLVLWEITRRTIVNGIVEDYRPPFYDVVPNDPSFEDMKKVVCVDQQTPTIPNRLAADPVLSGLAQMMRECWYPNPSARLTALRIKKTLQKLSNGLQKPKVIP
In words: In-cell Western ALK1 assay (BAOEC cells, BMP9 as agonist). Format: cell-based, Bovine. As to conditions: read-out: BMP9 ICW. The text has this: 3. In-Cell Western ALK1 and ALK2 Assays in 384-Well Plate Format.
We also optimized cell-based In-cell Western assays for measurements of ALK1 and ALK2 activities that were used to determine compound activities in these two kinases. The cell lines and agonists used were same as described in above cell-based HTRF ALK1 and ALK2 assays. The initial cell plating and compound treatment were also same. The main difference is the detection of phosphorylation status of SMAD1. In t-cell Western assay, the cells were fixed and phosphorylation status of SMAD1 was detected by the ELISA instead of using the HTRF assay kit in above assay.
C2C12 cells and RPMI 1640 medium were obtained from ATCC (Manassas, Va.) and Bovine Aortic endothelial Cells (BAOEC) and epithelial defined growth medium were purchased from Genlantis (San Deigo, Calif.). HyClone Fetal Bovine Serum was obtained from GE healthcare life sciences (Logan, Utah). BMP6 and BMP9 were purchased from R&D System (R&D). Anti-P-SMAD 1/5/8 rabbit mAb and anti-rabbit IgG, HRP-Linked antibody were purchased from Cell Signaling Technology (Danvers, Mass.). BioFX Chemiluminescent Ultra-Sensitive HRP Microwell Substrate ECL Reagent was obtained from SurModics (Edina, Minn.). The compound plates and the white solid MB assay plates were from Greiner Bio-one (Monroe, N.C.).
Similarly as described in above HTRF cell-based assay, this assay was performed in 384 well plate format. C2C12 were grown in T225 flasks were sterilely washed with 1×PBS pre-starved with medium containing 0.1% FBS for 20 hours. Pre-starved cells were then plated in 384 well plate in the starvation medium (containing in 0.1% FBS). After 4 hours, compound dilutions in DMSO were added to the assay plate and incubated for 30 minutes. The assay plate was then added with BMP6 for C2C12 cells or BMP9 for BAOEC cells and incubated for 30 minutes.
Cells were fixed with 50 ul ice-cold methanol and incubated for 15 min after removing the supernatant. The methanol was removed and filled with 0.5% glutaraldehyde and incubated at room temperature for 15 min. The cells were washed in the plate washer with PBS and blocked with 2% BSA in PBS for 1 h at room temperature on the rotator. After removing the blocking reagent, the cells were incubated with the anti-p-SMAD1 antibody in 2% BSA in PBS for overnight at 4° C. on rotator. The cells were washed with PBS in the plate washer and incubated with HRP conjugated second antibody in 2% BSA in PBS for 1 hour at room temperature. After a cell wash with PBS, ECL detection reagent was added and the plate was read in the luminesce mode in the ViewLux plate reader.

pIC50: −log10 of the molar value. Values joined by “and” are separate entries in the source; they are usually repeats but may differ in a detail not shown here. Identical values can stand only once. A value given as a limit tells only on which side of the number the result lay.

Sequence of ALK6 (O00238 14-502): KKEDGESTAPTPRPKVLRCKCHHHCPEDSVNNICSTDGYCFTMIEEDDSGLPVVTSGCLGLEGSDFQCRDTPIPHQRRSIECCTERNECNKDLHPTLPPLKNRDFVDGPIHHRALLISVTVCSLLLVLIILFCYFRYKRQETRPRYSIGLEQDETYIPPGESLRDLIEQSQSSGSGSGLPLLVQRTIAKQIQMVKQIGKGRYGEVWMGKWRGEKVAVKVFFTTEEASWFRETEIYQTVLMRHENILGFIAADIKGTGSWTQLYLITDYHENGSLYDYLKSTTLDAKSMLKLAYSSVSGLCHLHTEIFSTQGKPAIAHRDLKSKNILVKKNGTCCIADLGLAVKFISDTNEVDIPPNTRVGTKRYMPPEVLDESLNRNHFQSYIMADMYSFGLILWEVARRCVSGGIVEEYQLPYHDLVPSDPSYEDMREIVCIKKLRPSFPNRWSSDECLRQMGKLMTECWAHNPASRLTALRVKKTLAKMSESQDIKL
Sequence of ALK3 (P36894 24-532): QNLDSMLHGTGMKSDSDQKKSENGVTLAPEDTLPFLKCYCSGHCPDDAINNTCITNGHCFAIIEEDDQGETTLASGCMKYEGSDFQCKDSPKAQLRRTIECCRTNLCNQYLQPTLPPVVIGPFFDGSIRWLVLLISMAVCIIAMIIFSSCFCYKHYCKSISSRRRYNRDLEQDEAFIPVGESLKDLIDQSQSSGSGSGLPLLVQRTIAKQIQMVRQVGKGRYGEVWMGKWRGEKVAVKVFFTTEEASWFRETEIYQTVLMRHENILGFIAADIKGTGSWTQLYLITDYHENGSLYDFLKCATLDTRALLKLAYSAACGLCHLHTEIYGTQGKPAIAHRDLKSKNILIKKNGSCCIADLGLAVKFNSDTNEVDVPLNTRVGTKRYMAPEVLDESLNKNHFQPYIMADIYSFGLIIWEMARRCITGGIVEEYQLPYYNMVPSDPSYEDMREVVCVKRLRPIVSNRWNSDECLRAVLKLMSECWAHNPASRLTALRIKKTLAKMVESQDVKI
Sequence of ALK1 (Homo sapiens, UniProt P37023) (P37023 22-503): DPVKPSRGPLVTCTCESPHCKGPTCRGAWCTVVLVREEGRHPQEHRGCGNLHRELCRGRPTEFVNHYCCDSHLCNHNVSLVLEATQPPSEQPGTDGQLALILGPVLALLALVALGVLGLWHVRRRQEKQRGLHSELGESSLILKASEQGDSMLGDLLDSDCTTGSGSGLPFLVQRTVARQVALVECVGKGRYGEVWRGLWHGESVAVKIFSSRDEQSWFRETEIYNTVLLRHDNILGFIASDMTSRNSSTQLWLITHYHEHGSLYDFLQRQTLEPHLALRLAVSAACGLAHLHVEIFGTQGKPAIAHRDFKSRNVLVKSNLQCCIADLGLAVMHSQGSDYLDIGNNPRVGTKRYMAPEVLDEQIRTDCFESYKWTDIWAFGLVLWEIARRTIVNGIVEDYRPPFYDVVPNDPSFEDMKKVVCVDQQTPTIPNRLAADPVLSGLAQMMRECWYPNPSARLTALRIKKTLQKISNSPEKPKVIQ

As for `CC(C)S(=O)(=O)c1cccc(-c2cnn3cc(-c4ccc(CCN5CCCCC5)cc4)cnc23)c1` [Compound 113, 3-(3-(isopropylsulfonyl)phenyl)-6-(4-(2-(piperidin-1-yl)ethyl)phenyl)pyrazolo[1,5-a]pyrimidine], the pIC50 is less than 5.00 in test [1]; 5.04 in test [2]; 6.30 in test [3]; less than 5.00 in test [4]; 5.34 in test [5].

Consider `C[S+](=O)([O-])c1cccc(-c2cnn3cc(-c4ccc(OC5(CN6CCCCC6)COC5)cc4)cnc23)c1` [Compound 93, 3-(3-(methylsulfonyl)phenyl)-6-(4-((3-(piperidin-1-ylmethyl)oxetan-3-yl)oxy)phenyl)pyrazolo[1,5-a]pyrimidine], for which the pIC50 in test [6] was 5.48 and 5.85 and 5.52 and 5.42 and 5.44 and 5.92 and 5.72; in test [1], less than 5.00; in test [2], 5.54; in test [3], 7.00; in test [4], less than 5.00; in test [5], 5.82.

Turning to `C[S+](=O)([O-])c1cccc(-c2cnn3cc(-c4ccc(OCCN5CCCCC5)cc4)cnc23)c1` [Compound 109], the pIC50 in test [1] is less than 5.00; in test [2] it was less than 5.00; in test [3], 6.41; in test [4], less than 5.00; in test [5], 5.82.

In the case of `CC1(c2ccc(-c3cnc4c(-c5cccc(S(C)(=O)=O)c5)cnn4c3)cc2)CCNCC1` [Compound 115, 6-(4-(4-methylpiperidin-4-yl)phenyl)-3-(3-(methylsulfonyl)phenyl)pyrazolo[1,5-a]pyrimidine], the pIC50 was 5.82 in test [6]; 5.04 in test [1]; 5.05 in test [2]; 6.96 in test [3]; less than 5.00 in test [4]; 5.77 in test [5].

Take `C[C@@H]1CNC[C@H](C)N1c1ccc(-c2cnc3c(-c4cccc5c(C(N)=O)cccc45)cnn3c2)cc1` [Compound 10, 5-(6-(4-((2S,6R)-2,6-dimethylpiperazin-1-yl)phenyl)pyrazolo[1,5-a]pyrimidin-3-yl)-1-naphthamide]: the pIC50 in test [6] was 7.38 and 7.28 and 7.18 and 7.11 and 7.04 and 7.55 and 7.31 and 7.29; in test [1] it was 5.97; in test [2], 7.47; in test [3] it was 8.30; in test [4], 5.03; in test [5], 7.74.

Consider `CC[S+](=O)([O-])c1cccc(-c2cnn3cc(-c4ccc(N5[C@H](C)CNC[C@@H]5C)cc4)cnc23)c1` [Compound 104, 6-(4-((2R,6S)-2,6-dimethylpiperazin-1-yl)phenyl)-3-(3-(ethylsulfonyl)phenyl)pyrazolo[1,5-a]pyrimidine], for which the pIC50 in test [6] is 5.96 and 6.44 and 6.07; in test [1], 5.32; in test [2] it was 5.13; in test [3], 7.47; in test [4], less than 5.00; in test [5] it was 6.29.

For `CC(O)c1cccc(-c2cnn3cc(-c4ccc(OC5(CN6CCCCC6)CC5)cc4)cnc23)c1` (stereo not drawn) [Compound 143, 1-(3-(6-(4-(1-(piperidin-1-ylmethyl)cyclopropoxy)phenyl)pyrazolo[1,5-a]pyrimidin-3-yl)phenyl)ethanol], the pIC50 was less than 5.00 in test [1]; 5.02 in test [2]; 6.48 in test [3]; less than 5.00 in test [4]; 5.85 in test [5].

`C[C@@H]1CNC[C@H](C)N1c1ccc(-c2cnc3c(-c4cccc(S(C)(=O)=O)c4)cnn3c2)cc1` [Compound 82, 6-(4-((2R,6S)-2,6-dimethylpiperazin-1-yl)phenyl)-3-(3-(methylsulfonyl)phenyl)pyrazolo[1,5-a]pyrimidine]: the IC50 in test [6] was 1.5 µM (2×) and 1 µM and 1.3 µM and 1.8 µM and 360 nM and 960 nM and 2 µM. Also, the pIC50 in test [1] was 5.49; in test [2], 5.10; in test [3], 7.52; in test [4] it was less than 5.00; in test [5], 6.27.

On to `C[C@@H]1CNC[C@H](C)N1c1ccc(-c2cnc3c(-c4cccc(C(C)(C)O)c4)cnn3c2)cc1` [Compound 103, 2-(3-(6-(4-((2R,6S)-2,6-dimethylpiperazin-1-yl)phenyl)pyrazolo[1,5-a]pyrimidin-3-yl)phenyl)propan-2-ol], for which the pIC50 in test [6] was 5.85 and 6.25 and 6.00 and 6.12 and 5.82 and 6.51 and 6.08; in test [1], 5.38; in test [2] it was 5.37; in test [3], 7.54; in test [4], less than 5.00; in test [5], 6.51.

Regarding `CS(=O)(=O)c1cccc(-c2cnn3cc(-c4ccc(CN5CCCCC5)cc4)cnc23)c1` [Compound 123, 3-(3-(methylsulfonyl)phenyl)-6-(4-(piperidin-1-ylmethyl)phenyl)pyrazolo[1,5-a]pyrimidine], the pIC50 in test [1] was less than 5.00; in test [2], less than 5.00; in test [3], 6.68; in test [4], less than 5.00; in test [5] it was less than 5.00.

For the compound `CC(C)S(=O)(=O)c1cccc(-c2cnn3cc(-c4ccc(N5[C@H](C)CNC[C@@H]5C)cc4)cnc23)c1` [Compound 114, 6-(4-((2R,6S)-2,6-dimethylpiperazin-1-yl)phenyl)-3-(3-(isopropylsulfonyl)phenyl)pyrazolo[1,5-a]pyrimidine], the pIC50 in test [1] is 5.39; in test [2] it was 5.20; in test [3], 7.17; in test [4] it was less than 5.00; in test [5], 5.96.

On to `NS(=O)(=O)c1ccc(-c2cnn3cc(-c4ccc(CCN5CCCCC5)cc4)cnc23)c2ccccc12` [Compound 54, 4-(6-(4-(2-(piperidin-1-yl)ethyl)phenyl)pyrazolo[1,5-a]pyrimidin-3-yl)naphthalene-1-sulfonamide], for which the pIC50 in test [1] is less than 5.00; in test [2], less than 5.00; in test [3], 6.42; in test [4], less than 5.00; in test [5], less than 5.00.
